Tests used:
c-Src = biological target: T1, c-Src (Homo sapiens, UniProt P12931); assay: Upstate KinaseProfiler radio-enzymatic filter binding assay, c-Src; assay type: biochemical; settings: 10 μM compound; read-out: percentage inhibition, c-Src
T1 construct: purchased Upstate
Experimental: (§1) Compounds of the invention are assessed for their ability to inhibit individual members of a panel of kinases (a partial, non-limiting list of kinases includes: cSRC, Lck, FGFR3, Flt3, TrkB and PFGFRα). The compounds are tested in duplicates at a final concentration of 10 μM following this generic protocol. Note that the kinase buffer composition and the substrates vary for the different kinases included in the “Upstate KinaseProfiler™” panel. Kinase buffer (2.5 μL, 10×-containing MnCl2 when required), active kinase (0.001-0.01 Units; 2.51 μL), specific or Poly(Glu4-Tyr) peptide (5-500 μM or 0.01 mg/ml) in kinase buffer and kinase buffer (50 μM; 5 μL) are mixed in an eppendorf on ice. A Mg/ATP mix (10 μL; 67.5 (or 33.75) mM MgCl2, 450 (or 225) μM ATP and 1 μCi/μl [γ-^32P]-ATP (3000 Ci/mmol)) is added and the reaction is incubated at about 30° C. for about 10 minutes. The reaction mixture is spotted (20 μL) onto a 2 cm×2 cm P81 (phosphocellulose, for positively charged peptide substrates) or Whatman No. 1 (for Poly (Glu4-Tyr) peptide substrate) paper square. The assay squares are washed 4 times, for 5 minutes each, with 0.75% phosphoric acid and washed once with acetone for 5 minutes. The assay squares are transferred to a scintillation vial, 5 ml scintillation cocktail are added and ^32P incorporation (cpm) to the peptide substrate is quantified with a Beckman scintillation counter. Percentage inhibition is calculated for each reaction.

Flt3 = biological target: T2, Flt3 (Homo sapiens, UniProt P36888); assay: Upstate KinaseProfiler radio-enzymatic filter binding assay, Flt3; assay type: biochemical; settings: 10 μM compound; read-out: percentage inhibition, Flt3
T2 construct: purchased Upstate
T2 sequence (P36888 27-993): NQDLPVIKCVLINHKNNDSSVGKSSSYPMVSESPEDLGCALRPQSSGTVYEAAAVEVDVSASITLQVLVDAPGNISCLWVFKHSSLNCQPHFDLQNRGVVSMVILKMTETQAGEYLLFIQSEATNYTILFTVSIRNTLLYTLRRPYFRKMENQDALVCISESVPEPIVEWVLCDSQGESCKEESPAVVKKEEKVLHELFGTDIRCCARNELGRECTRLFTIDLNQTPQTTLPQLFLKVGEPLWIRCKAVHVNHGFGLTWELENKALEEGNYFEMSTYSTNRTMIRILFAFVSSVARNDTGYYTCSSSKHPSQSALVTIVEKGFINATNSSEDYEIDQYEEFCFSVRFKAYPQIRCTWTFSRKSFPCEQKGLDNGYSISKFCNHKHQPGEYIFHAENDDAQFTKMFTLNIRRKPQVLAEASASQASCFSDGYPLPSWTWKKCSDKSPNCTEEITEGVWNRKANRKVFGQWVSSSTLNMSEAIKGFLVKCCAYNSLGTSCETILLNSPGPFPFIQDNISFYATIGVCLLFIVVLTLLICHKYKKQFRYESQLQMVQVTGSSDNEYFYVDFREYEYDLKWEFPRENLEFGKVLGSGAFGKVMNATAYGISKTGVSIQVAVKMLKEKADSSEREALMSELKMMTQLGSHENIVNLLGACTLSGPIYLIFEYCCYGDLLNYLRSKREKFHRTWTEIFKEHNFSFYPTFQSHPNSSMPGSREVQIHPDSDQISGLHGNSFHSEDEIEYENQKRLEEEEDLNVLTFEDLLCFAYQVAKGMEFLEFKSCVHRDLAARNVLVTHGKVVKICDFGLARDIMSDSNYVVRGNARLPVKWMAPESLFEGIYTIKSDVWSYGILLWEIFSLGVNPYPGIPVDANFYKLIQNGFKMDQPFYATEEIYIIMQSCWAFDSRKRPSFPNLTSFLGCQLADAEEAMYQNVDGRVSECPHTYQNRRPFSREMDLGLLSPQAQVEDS
Experimental: as §1

Bmx = biological target: T3, Bmx (Homo sapiens, UniProt P51813); assay: Upstate KinaseProfiler radio-enzymatic filter binding assay, Bmx; assay type: biochemical; settings: 10 μM compound; read-out: percentage inhibition, Bmx
T3 construct: purchased Upstate
T3 sequence (P51813 1-675): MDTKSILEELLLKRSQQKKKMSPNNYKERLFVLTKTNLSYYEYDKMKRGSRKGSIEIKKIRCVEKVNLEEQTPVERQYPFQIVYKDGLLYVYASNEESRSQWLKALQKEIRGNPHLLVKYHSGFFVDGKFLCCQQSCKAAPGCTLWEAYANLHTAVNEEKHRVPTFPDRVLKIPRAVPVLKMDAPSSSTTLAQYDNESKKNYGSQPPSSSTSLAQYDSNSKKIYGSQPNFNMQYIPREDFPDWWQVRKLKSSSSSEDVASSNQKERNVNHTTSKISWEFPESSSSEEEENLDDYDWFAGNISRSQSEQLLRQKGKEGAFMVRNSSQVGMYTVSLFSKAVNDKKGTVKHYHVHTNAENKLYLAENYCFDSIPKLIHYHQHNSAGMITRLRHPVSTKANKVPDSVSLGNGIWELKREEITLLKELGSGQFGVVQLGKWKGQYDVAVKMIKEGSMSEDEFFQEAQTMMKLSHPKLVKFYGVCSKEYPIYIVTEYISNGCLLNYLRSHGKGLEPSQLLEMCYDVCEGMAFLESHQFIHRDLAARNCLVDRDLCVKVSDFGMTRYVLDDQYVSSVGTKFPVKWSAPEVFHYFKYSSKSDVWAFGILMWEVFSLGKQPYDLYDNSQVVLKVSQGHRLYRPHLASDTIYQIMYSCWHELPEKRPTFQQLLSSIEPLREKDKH
Experimental: as §1

Abl = biological target: T4, Abl (Homo sapiens, UniProt P00519); assay: Upstate KinaseProfiler radio-enzymatic filter binding assay, Abl; assay type: biochemical; settings: 10 μM compound; read-out: percentage inhibition, Abl
T4 construct: purchased Upstate
Experimental: (§2) Compounds of the invention are assessed for their ability to inhibit individual members of a panel of kinases (a partial, non-limiting list of kinases includes: cSRC, Lck, FGFR3, Flt3, TrkB and PFGFRα). The compounds are tested in duplicates at a final concentration of 10 μM following this generic protocol. Note that the kinase buffer composition and the substrates vary for the different kinases included in the “Upstate KinaseProfiler™” panel. Kinase buffer (2.5 μL, 10×-containing MnCl2 when required), active kinase (0.001-0.01 Units; 2.51 μL), specific or Poly(Glu4-Tyr) peptide (5-500 μM or 0.01 mg/ml) in kinase buffer and kinase buffer (50 μM; 5 μL) are mixed in an eppendorf on ice. A Mg/ATP mix (10 μL; 67.5 (or 33.75) mM MgCl2, 450 (or 225) μM ATP and 1 μCi/μl [γ-^32P]-ATP (3000 Ci/mmol)) is added and the reaction is incubated at about 30° C. for about 10 minutes. […] The assay squares are transferred to a scintillation vial, 5 ml scintillation cocktail are added and ^32P incorporation (cpm) to the peptide substrate is quantified with a Beckman scintillation counter. Percentage inhibition is calculated for each reaction.

TrkB = biological target: T5, TrkB (Homo sapiens, UniProt Q16620); assay: Upstate KinaseProfiler radio-enzymatic filter binding assay, TrkB; assay type: biochemical; settings: 10 μM compound; read-out: percentage inhibition, TrkB
T5 construct: purchased Upstate
Experimental: as §1

Lck = biological target: T6, Lck (Homo sapiens, UniProt P06239); assay: Upstate KinaseProfiler radio-enzymatic filter binding assay, Lck; assay type: biochemical; settings: 10 μM compound; read-out: percentage inhibition, Lck
T6 construct: purchased Upstate
Experimental: as §1

Rsk1 = biological target: T7, Rsk1 (Homo sapiens, UniProt Q15418); assay: Upstate KinaseProfiler radio-enzymatic filter binding assay, Rsk1; assay type: biochemical; settings: 10 μM compound; read-out: percentage inhibition, Rsk1
T7 construct: purchased Upstate
Experimental: as §2

FGFR3 = biological target: T8, FGFR3 (Homo sapiens, UniProt P22607); assay: Upstate KinaseProfiler radio-enzymatic filter binding assay, FGFR3; assay type: biochemical; settings: 10 μM compound; read-out: percentage inhibition, FGFR3
T8 construct: purchased Upstate
Experimental: as §2

Ba/F3-Flt3-ITD cells = assay: Ba/F3-Flt3-ITD cell proliferation/cytotoxicity (Yo-Pro); assay type: cell-based; settings: Ba/F3 cells dependent on mutant Flt3, 48 hours, read-out: IC50 in the assay described by example 14
Source text: Compounds that have differential activity (more than or equal to 10 fold difference in sensitivity between Flt3+ cell lines and Flt3− cell lines are selected for further study.
The cell lines used for the initial screening are sub-lines of Ba/F3 cells that are engineered to over-express mutant or wild-type (non-mutated) Flt3 following infection with a retrovirus expressing appropriate Flt3 cDNAs. The parent cell line, Ba/F3 is dependent on interleukin-3 for proliferation, and when deprived of IL-3, the cells rapidly cease proliferation and die. The retrovirus expresses Flt3 from the retrovirual LTR and the neo gene from an IRES site. Ba/F3 cells are selected in G418 and analyzed for expression of Flt3 by fluorescence activated cell sorting (FACS). Cell lines with two different Flt3 mutations are used. One mutant expresses a Flt-3 that has a 14 amino acid duplication in the juxtamembrane domain encoded by exon 11, the specific duplication being . . . VDFREYEYDLKWEF . . . […]
Yo-Pro-1 iodide (Molecular Probes) is added to the cells at a final concentration of 2.5 μM in NaCl/Na-citrate buffer. The cells are incubated with Yo-Pro for 10 minutes at room temperature and then read on a fluorimeter for determination of cytotoxicity. Next, the cells are lysed with NP40/EDTA/EGTA buffer, incubated at room temperature for 90 minutes and read for the determination of proliferation. […]

purified GST-Flt-3 = biological target: T9, purified GST-Flt-3 (Homo sapiens, UniProt P36888); assay: Flt-3 tyrosine protein kinase assay, 33P incorporation from γ-33P-ATP into poly-EY; assay type: biochemical; settings: purified GST-Flt-3, 10 μM ATP; read-out: IC50 in the assay described in example 13
T9 sequence (P36888 27-993): T2 sequence (P36888 27-993)
Experimental: The activity is assayed in the presence or absence of different concentrations of inhibitors, by measuring the incorporation of ^33P from γ-^33P-ATP into appropriate substrates.
Tyrosine protein kinase assay with purified GST-Flt-3 is carried out in a final volume of 40 μL containing 500 ng of enzyme in kinase buffer (30 mM Tris-HCl (pH7.5), 3 mM MnCl2, 15 mM MgCl2, 1.5 mM DTT, 15 μM Na3VO4, 7.5 mg/ml PEG, 0.25 μM poly-EY(Glu, Tyr), 1% DMSO (at highest concentration of compound), 10 μM ATP and γ-^33P-ATP (0.1 μCi)). Two solutions are made: the first solution of 10 μl contains the Flt-3 enzyme and the inhibitor. The second solution contains the substrate (poly-EY), ATP, and γ-^33P-ATP in 30 μl of kinase buffer. Both solutions are mixed on 96-well PVDF filter plates (Millipore, Bedford, Mass., USA), previously wetted with 70% ethanol and rinsed with 1M Tris (7.4). The reaction is incubated at room temperature for 20 minutes, stopped with 0.1% phosphoric acid and then filtered through the plate using a vacuum manifold, allowing the substrate to bind to the membrane. The plates are then washed 5 times with 0.1% phosphoric acid, mounted in Packard TopCount 96-well adapter plate, and 50 μL of Microscint™ (Packard) is added to each well before counting. […]

T6 sequence (P06239 whole entry): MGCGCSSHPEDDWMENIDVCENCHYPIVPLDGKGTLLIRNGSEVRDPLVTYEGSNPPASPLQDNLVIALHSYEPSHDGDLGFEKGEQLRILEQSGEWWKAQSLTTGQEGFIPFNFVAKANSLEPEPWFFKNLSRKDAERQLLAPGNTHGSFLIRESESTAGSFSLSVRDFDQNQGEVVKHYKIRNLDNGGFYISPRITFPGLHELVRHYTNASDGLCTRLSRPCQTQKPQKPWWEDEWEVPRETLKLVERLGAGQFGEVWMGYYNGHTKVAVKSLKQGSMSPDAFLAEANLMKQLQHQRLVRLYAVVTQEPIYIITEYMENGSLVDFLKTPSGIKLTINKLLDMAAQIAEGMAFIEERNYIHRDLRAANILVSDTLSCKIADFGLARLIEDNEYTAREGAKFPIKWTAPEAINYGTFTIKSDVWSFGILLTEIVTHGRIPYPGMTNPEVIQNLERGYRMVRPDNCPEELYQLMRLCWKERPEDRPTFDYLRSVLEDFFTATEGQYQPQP
T5 sequence (Q16620 32-822): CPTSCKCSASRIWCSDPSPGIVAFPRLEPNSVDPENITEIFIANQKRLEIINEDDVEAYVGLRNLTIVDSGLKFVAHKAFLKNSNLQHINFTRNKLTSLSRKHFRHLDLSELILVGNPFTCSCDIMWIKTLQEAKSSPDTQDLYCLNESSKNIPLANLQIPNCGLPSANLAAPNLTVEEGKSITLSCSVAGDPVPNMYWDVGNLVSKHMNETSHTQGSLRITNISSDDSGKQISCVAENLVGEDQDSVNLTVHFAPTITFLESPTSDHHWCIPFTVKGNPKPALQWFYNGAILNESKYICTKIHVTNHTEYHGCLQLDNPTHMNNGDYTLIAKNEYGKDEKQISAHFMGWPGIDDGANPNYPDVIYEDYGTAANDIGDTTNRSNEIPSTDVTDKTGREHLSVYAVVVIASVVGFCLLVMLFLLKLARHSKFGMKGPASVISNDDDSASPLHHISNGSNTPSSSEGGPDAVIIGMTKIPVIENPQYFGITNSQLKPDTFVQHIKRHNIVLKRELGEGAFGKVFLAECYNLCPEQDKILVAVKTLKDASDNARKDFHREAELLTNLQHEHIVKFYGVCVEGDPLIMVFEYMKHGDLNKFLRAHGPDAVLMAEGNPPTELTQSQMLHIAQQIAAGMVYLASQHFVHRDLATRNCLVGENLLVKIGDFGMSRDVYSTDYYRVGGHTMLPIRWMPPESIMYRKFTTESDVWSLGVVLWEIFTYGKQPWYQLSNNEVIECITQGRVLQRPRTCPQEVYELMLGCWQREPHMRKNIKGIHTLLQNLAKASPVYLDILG
T1 sequence (P12931 whole entry): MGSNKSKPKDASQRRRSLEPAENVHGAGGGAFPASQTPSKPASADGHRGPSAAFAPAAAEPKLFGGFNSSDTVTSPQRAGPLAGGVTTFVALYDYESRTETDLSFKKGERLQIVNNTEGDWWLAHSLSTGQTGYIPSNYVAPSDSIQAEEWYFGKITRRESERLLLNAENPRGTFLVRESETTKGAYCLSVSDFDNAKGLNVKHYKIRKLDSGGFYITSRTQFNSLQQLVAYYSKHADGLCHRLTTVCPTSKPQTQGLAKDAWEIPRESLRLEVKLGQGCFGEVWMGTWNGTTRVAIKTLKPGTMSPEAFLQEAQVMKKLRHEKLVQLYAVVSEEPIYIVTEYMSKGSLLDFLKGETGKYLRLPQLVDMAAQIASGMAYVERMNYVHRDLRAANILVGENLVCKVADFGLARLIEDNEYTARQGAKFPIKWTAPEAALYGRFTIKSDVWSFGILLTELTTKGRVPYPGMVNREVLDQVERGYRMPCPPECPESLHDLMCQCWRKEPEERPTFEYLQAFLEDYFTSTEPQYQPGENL
T4 sequence (P00519 whole entry, species assumed): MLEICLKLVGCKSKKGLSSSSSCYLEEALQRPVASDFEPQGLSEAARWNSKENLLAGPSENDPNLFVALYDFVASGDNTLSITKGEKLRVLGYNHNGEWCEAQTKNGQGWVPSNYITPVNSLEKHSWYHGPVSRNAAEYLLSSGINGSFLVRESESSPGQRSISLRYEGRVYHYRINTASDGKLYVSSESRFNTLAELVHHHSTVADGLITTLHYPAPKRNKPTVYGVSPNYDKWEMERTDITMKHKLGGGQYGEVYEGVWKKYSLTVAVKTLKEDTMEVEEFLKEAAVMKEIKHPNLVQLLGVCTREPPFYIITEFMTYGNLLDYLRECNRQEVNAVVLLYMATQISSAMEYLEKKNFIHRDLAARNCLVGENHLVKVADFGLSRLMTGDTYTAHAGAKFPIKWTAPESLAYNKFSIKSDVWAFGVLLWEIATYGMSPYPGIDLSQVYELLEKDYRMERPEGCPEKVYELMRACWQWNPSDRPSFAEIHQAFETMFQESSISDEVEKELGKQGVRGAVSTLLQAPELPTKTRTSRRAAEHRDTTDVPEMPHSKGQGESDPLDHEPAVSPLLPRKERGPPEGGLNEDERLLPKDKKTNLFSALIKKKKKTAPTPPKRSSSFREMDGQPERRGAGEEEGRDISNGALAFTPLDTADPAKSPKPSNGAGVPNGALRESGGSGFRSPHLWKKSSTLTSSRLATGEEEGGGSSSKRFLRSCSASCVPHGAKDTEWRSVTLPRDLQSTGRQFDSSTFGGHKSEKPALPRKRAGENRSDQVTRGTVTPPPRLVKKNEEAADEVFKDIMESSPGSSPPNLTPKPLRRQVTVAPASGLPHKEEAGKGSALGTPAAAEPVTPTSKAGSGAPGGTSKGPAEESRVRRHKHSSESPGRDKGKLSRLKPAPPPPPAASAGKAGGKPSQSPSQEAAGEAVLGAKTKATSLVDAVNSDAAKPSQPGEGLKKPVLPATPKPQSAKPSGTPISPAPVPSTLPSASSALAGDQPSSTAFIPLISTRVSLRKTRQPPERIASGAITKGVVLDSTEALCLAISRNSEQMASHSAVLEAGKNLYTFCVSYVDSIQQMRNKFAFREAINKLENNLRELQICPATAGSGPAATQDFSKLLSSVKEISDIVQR
T7 sequence (Q15418 whole entry, species assumed): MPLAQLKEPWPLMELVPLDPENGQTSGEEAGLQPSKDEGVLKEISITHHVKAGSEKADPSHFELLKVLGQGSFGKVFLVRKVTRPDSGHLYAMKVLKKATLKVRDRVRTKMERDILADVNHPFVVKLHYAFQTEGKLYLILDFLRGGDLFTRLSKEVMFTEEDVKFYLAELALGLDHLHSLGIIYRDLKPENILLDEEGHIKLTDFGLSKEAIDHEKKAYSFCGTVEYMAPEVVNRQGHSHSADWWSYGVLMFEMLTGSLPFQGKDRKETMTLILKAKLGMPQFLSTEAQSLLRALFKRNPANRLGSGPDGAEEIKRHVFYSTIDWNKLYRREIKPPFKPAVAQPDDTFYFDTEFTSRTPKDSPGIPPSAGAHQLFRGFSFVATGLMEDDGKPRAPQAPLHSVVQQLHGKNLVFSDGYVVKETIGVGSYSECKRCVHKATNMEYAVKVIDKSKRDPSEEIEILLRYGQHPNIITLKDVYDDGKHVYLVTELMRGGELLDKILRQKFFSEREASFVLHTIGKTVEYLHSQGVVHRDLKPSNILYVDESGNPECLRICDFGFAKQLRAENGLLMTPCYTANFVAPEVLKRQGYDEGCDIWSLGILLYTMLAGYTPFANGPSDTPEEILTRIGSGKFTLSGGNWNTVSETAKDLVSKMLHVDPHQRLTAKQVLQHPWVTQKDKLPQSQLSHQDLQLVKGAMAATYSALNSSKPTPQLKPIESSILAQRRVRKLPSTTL
T8 sequence (P22607 23-806): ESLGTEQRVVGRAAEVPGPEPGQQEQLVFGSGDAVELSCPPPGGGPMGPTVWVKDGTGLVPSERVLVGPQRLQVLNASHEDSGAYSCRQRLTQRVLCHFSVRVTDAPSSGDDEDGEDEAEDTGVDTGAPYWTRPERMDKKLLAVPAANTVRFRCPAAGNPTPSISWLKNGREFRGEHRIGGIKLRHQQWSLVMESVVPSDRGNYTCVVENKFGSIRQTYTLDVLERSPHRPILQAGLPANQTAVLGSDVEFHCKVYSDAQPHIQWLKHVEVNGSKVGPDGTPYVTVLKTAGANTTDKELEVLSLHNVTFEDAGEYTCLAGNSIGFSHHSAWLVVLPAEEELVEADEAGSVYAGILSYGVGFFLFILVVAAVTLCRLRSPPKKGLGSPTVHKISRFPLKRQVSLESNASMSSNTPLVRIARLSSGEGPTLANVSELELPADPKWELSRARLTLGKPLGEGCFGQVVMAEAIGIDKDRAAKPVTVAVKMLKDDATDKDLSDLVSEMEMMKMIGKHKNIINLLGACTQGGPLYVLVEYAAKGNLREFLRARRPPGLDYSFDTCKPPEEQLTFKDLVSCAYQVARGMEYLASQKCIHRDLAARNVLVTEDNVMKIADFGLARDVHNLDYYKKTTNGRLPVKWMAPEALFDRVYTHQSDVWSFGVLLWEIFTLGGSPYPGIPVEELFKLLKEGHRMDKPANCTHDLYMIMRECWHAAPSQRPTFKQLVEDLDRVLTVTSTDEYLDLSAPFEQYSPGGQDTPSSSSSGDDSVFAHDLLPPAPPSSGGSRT

Row | inhibition at 10 µM (c-Src) [%] | inhibition at 10 µM (Flt3) [%] | inhibition at 10 µM (Bmx) [%] | inhibition at 10 µM (Abl) [%] | inhibition at 10 µM (TrkB) [%] | inhibition at 10 µM (Lck) [%] | inhibition at 10 µM (FGFR3) [%] | IC50 (purified GST-Flt-3) [nM] | Compound | inhibition at 10 µM (Rsk1) [%] | IC50 (Ba/F3-Flt3-ITD cells) [nM]
1 | 98 | 99 | 71 | 81 | 99 | 99 |  |  | CS(=O)(=O)c1ccc(Nc2nc(N3CCOCC3)nc3c2ncn3-c2cscn2)cc1 [Compound 503, (4-Methanesulfonyl-phenyl)-(2-morpholin-4-yl-9-thiazol-4-yl-9H-purin-6-yl)-amine] |  | 
2 | 99 | 100 | 86 | 98 | 99 | 95 | 98 |  | CS(=O)(=O)c1ccc(Nc2nc(NCc3ccccn3)nc3c2ncn3-c2cscn2)cc1 [Compound 554, N^6-(4-Methanesulfonyl-phenyl)-N^2-pyridin-2-ylmethyl-9-thiazol-4-yl-9H-purine-2,6-diamine] |  | 
3 |  |  |  |  |  |  |  | 7 | NC1CCC(Nc2nc(Nc3ccc(C(=O)N4CCCCC4)cc3)c3ncn(-c4ccsc4)c3n2)CC1 (stereo not drawn) [{4-[2-(4-amino-cyclohexylamino)-9-thiophen-3-yl-9H-purin-6-ylamino]-phenyl}-piperidin-1-yl-methanone] |  | 5

Row | Compound | inhibition at 10 µM (c-Src) [%] | inhibition at 10 µM (Flt3) [%] | inhibition at 10 µM (Bmx) [%] | inhibition at 10 µM (Abl) [%] | inhibition at 10 µM (TrkB) [%] | inhibition at 10 µM (Lck) [%] | inhibition at 10 µM (FGFR3) [%] | IC50 (purified GST-Flt-3) [nM] | inhibition at 10 µM (Rsk1) [%] | IC50 (Ba/F3-Flt3-ITD cells) [nM]
4 | CN1CCC(N(C)c2nc(Nc3ccc(N4CCOCC4)cc3)c3ncn(-c4cscn4)c3n2)CC1 [Compound 539, N^2-Methyl-N^2-(1-methyl-piperidin-4-yl)-N^6-(4-morpholin-4-yl-phenyl)-9-thiazol-4-yl-9H-purine-2,6-diamine] | 97 | 100 | 90 |  | 99 | 99 |  |  | 82 | 

From US20050124637A1, “Compounds and compositions as inhibitors of receptor tyrosine kinase activity” (IRM LLC, priority 2003, published 2005)
